The nature of one series: physchem. The conditions noted are these: octan-1-ol/water, pH 7.4, LogD7.4.
Another series in a line: in vitro. As to conditions: human.

Here are results for 38 molecules from ChEMBL document CHEMBL3301361, “Experimental in vitro DMPK and physicochemical data on a set of publicly disclosed compounds”.

As usually defined, the logD is the decadic logarithm of the distribution of all forms, ionised or not, between an organic phase and buffer at a given pH. A low value points to lower lipophilicity. The microsomal CLint is the rate of metabolic loss divided by the concentration. Low readings indicate greater metabolic stability, high ones faster metabolism.

In turn, `O=C(Nc1ccc(S(=O)(=O)N2CCOCC2)cc1)c1cc(Cl)ccc1NS(=O)(=O)c1ccc(Cl)s1` showed a logD in “physchem” of 3.02. Besides, the intrinsic metabolic clearance (microsomal CLint) in the series “in vitro” (liver microsomes) was less than 3 µL/min/mg.

Turning to `N#Cc1cccc(C[C@@H](C(=O)O)N2CCC(CN3CCC(Oc4ccc(Cl)c(Cl)c4)CC3)CC2)c1`, the microsomal CLint in the series “in vitro” (liver microsomes) is less than 3 µL/min/mg.

The molecule `Cc1c(OC2CCN(CC3CCN([C@@H](Cc4ccc(F)cc4)C(=O)O)CC3)CC2)ccc(C#N)c1Cl` displayed a microsomal CLint in the series “in vitro” (microsomes) of 5.5 µL/min/mg.

The molecule `O=C(O)C(c1ccccc1)N1CCCC(CN2CCC(Oc3ccc(Cl)c(Cl)c3)CC2)C1` (configuration not stated) showed a log distribution coefficient (logD) in “physchem” of 2.6. This molecule also yielded a microsomal CLint in the series “in vitro” (liver microsomes) of less than 3 µL/min/mg.

In “physchem”, `O=C(O)[C@@H](c1ccccc1)N1CCC(CN2CCC(Oc3ccc(Cl)c(Cl)c3)CC2)CC1` had a log distribution coefficient (logD) of 2.14. Also, the intrinsic clearance (microsomal CLint) in the series “in vitro” (microsomes) is less than 3 µL/min/mg.

`O=C(O)c1cccnc1N1CCC(CN2CCC(Oc3ccc(Cl)c(Cl)c3)CC2)CC1` returned a microsomal CLint in the series “in vitro” (microsomes) of 4 µL/min/mg.

Molecule `O=C(O)[C@H](Cc1ccc(Cl)cc1)N1CCC(CN2CCC(Oc3ccc(Cl)c(Cl)c3)CC2)CC1` returned a microsomal CLint in “in vitro” (liver microsomes) of less than 3 µL/min/mg.

As for `O=C(NS(=O)(=O)c1cccc(Cl)c1)N1CCC(N2CCC(Oc3ccc(Cl)c(Cl)c3)CC2)CC1`, the logD in “physchem” is 2.62. The intrinsic clearance (microsomal CLint) in “in vitro” (liver microsomes) came to 6 µL/min/mg.

Consider `O=C(NS(=O)(=O)Cc1ccccc1)N1CCC(N2CCC(Oc3ccc(Cl)c(Cl)c3)CC2)CC1`, for which the logD in the series “physchem” turned out to be 2.13. The molecule also had an intrinsic metabolic clearance (microsomal CLint) in the series “in vitro” (liver microsomes) of less than 3 µL/min/mg.

In “physchem”, `Cc1cc(Cl)ccc1OC1CCN(C[C@H](O)CNC(=O)c2c[nH]nc2C(F)(F)F)CC1` showed a logD of 3.02. The molecule further registered a microsomal CLint in the series “in vitro” (microsomes) of less than 3 µL/min/mg.

In “physchem”, `O=C(NC[C@@H](O)CN1CCC(Oc2ccc(Cl)c(Cl)c2)CC1)c1n[nH]c2ccccc12` displayed a pH-dependent lipophilicity (logD) of 2.95. Also, the microsomal CLint in “in vitro” (liver microsomes) is less than 3 µL/min/mg.

In turn, `O=C(NC[C@@H](O)CN1CCC(Oc2ccc(Cl)c(Cl)c2)CC1)c1cnnc2ccccc12` displayed a logD in the series “physchem” of 3.28. The same molecule had a microsomal CLint in “in vitro” (liver microsomes) of 8 µL/min/mg.

With `CC(=O)Nc1ccc(O)cc1OC[C@@H](O)CN1CCC2(CC1)Cc1cc(Cl)ccc1O2`, the intrinsic clearance (microsomal CLint) in the series “in vitro” (liver microsomes) was found to be 8 µL/min/mg.

In the case of `CC(=O)Nc1ccc(O)cc1OC[C@@H](O)CN1CCC2(CC1)Cc1cc(F)ccc1O2`, in “physchem”, the log distribution coefficient (logD) stood at 2.1. Besides, the intrinsic clearance (microsomal CLint) in “in vitro” (microsomes) was less than 3 µL/min/mg.

`COCCNCc1ccc(Nc2ncc3cc(-c4ccncc4)ccc3n2)cc1` showed a logD in the series “physchem” of 1.86. Also, in “in vitro” (liver microsomes), the microsomal CLint worked out at 42.7 µL/min/mg.

`Nc1nccc(-n2ccc3ccccc32)n1` yielded a logD in the series “physchem” of 2.71. In the series “in vitro” (liver microsomes), this molecule yielded a microsomal CLint of 112 µL/min/mg.

In the case of `c1cn(-c2ccc(Oc3nccc(Oc4ccc5c(c4)OCO5)n3)cc2)cn1`, the pH-dependent lipophilicity (logD) in “physchem” turned out to be 3.27. In addition, the microsomal CLint in the series “in vitro” (microsomes) amounted to 13 µL/min/mg.

Take `C[C@H](CO)Nc1nc(SCc2ccccc2)nc2[nH]c(=O)[nH]c12`: the logD in the series “physchem” turned out to be 2.75. This molecule came in with a microsomal CLint in the series “in vitro” (liver microsomes) of less than 3 µL/min/mg.

Molecule `C[C@H](CO)Nc1nc(SCc2cccc(F)c2F)nc2[nH]c(=O)ccc12` returned a logD in the series “physchem” of 3.36. The molecule also yielded an intrinsic metabolic clearance (microsomal CLint) in “in vitro” (liver microsomes) of 9 µL/min/mg.

The molecule `N=C(N)c1cc2c(/C=C/c3ccc4c(c3)OCO4)cccc2s1` came in with an intrinsic metabolic clearance (microsomal CLint) in the series “in vitro” (liver microsomes) of 7 µL/min/mg.

With `COc1cccc(NC(=O)CC23CC4CC(CC(C4)C2)C3)c1C`, the microsomal CLint in the series “in vitro” (liver microsomes) was more than 150 µL/min/mg.

Regarding `CCCN1CCC(Oc2nccc(Nc3cc(NC(=O)c4cccc(N5CCOCC5)c4)ccc3C)n2)CC1`, in the series “physchem”, the pH-dependent lipophilicity (logD) came out at 2.6. The microsomal CLint in “in vitro” (liver microsomes) came to 54 µL/min/mg.

Consider `CCN(C(=O)Cc1ccc(S(C)(=O)=O)cc1)C1CCN(CCC(c2ccccc2)c2ccccc2)CC1`, for which the logD in “physchem” is 3. Further, the intrinsic clearance (microsomal CLint) in “in vitro” (liver microsomes) came to 16 µL/min/mg.

In turn, `Nc1nc2nc(SCc3cccc(F)c3F)[nH]c(=O)c2s1` yielded a logD in “physchem” of 2.5. The same molecule had an intrinsic clearance (microsomal CLint) in “in vitro” (liver microsomes) of less than 3 µL/min/mg.

`Cc1cc(Oc2ccc3c(c2)OCO3)nc(Oc2ccc(-n3ccnc3)cc2)n1` came in with a pH-dependent lipophilicity (logD) in the series “physchem” of 3.47. This molecule also yielded a microsomal CLint in “in vitro” (liver microsomes) of less than 3 µL/min/mg.

Take `CC[C@H](CO)Nc1nc(SCc2cccc(F)c2F)nc2nc(NC(C)C)sc12`: the microsomal CLint in “in vitro” (liver microsomes) is 42 µL/min/mg.

On to `NC(=O)Nc1sc(-c2ccccc2)cc1C(N)=O`, for which the logD in the series “physchem” was 2.42. The molecule further gave a microsomal CLint in the series “in vitro” (microsomes) of 21 µL/min/mg.

In the case of `NC(=O)c1sc(-c2ccc(Cl)cc2)cc1N`, in “in vitro” (liver microsomes), the microsomal CLint stood at 31 µL/min/mg.

As for `CC(=O)c1ccc(N2CCN(S(=O)(=O)C[C@]34CC[C@H](CC3=O)C4(C)C)CC2)nc1`, the logD in the series “physchem” amounted to 2.21. Further, the microsomal CLint in the series “in vitro” (liver microsomes) was more than 150 µL/min/mg.

As to `COc1ccc(N(C(=O)c2occc2Cl)C(C(=O)NC[C@@H](C)O)c2ccccc2F)c(OC)c1` (some centres not stated), the microsomal CLint in the series “in vitro” (microsomes) is 145 µL/min/mg.

For the molecule `O=C(CC12CC3CC(CC(C3)C1)C2)Nc1c(Cl)ccc2nc(CN3CCN(CCO)CC3)ccc12`, in the series “physchem”, the logD turned out to be 2.93. This molecule also displayed an intrinsic clearance (microsomal CLint) in “in vitro” (liver microsomes) of 79.5 µL/min/mg.

Regarding `O=C(CC1CCCCC1)Nc1c(Cl)ccc2nc(NCCCO)ccc12`, the logD in the series “physchem” was determined as 3.29. In “in vitro” (microsomes), this molecule yielded an intrinsic clearance (microsomal CLint) of 25 µL/min/mg.

Molecule `O=C(O)c1cccc(-c2ccc3c(C(=O)NCC45CC6CC(CC(C6)C4)C5)c(Cl)ccc3n2)c1` came in with a logD in the series “physchem” of 2.84. In the series “in vitro” (liver microsomes), this molecule had an intrinsic metabolic clearance (microsomal CLint) of 33 µL/min/mg.

Turning to `CCCCC(CC)CNC(=O)c1cc(-n2ncc(=O)[nH]c2=O)ccc1Cl` (configuration not stated), in “physchem”, the pH-dependent lipophilicity (logD) was determined as 2.41. The intrinsic metabolic clearance (microsomal CLint) in the series “in vitro” (liver microsomes) came out at 24 µL/min/mg.

The molecule `Cc1ccc2c(N)c(C(N)=O)sc2n1` came in with an intrinsic clearance (microsomal CLint) in the series “in vitro” (liver microsomes) of 13 µL/min/mg.

On to `N=C(N)c1cc2c(OCc3ccccc3)cccc2s1`, for which the intrinsic metabolic clearance (microsomal CLint) in the series “in vitro” (liver microsomes) came out at 11 µL/min/mg.

For `CCN(CC)Cc1cc(Nc2ccnc3cc(Cl)ccc23)ccc1O` [AMODIAQUINE], in “in vitro” (microsomes), the microsomal CLint was more than 150 µL/min/mg.

For the molecule `CC(C(=O)O)c1ccc(-c2ccccc2)c(F)c1` (configuration not stated) [FLURBIPROFEN], in “in vitro” (liver microsomes), the microsomal CLint came to 23.5 µL/min/mg.
